How the values were obtained:
mice [1] = experiment: Signs of hallucination in mice at increasing doses; format: in vivo; settings: oral, FIG. 3
Procedure: FIG. 3 is a plot of % mice showing sign of hallucination at increasing doses of 2C-B.
(§1) Mice were administered increasing amounts of 2C-B to identify sub-hallucinogenic doses (FIG. 3). It was determined that a dose of 0.025 mg/kg can be orally administered to mice without showing any signs of hallucination. Mice were then administered 2C-B for increasing amounts of time, then placed on the EPM apparatus for 5 minutes and time spent on the open arms obtained. As it can be seen in FIG. 4, the sub-hallucinogenic dose of 2C-B was capable of reducing anxiety in mice.

mice [2] = experiment: EPM apparatus, time spent on the open arms (anxiety); format: in vivo; settings: sub-hallucinogenic dose, EPM for 5 minutes, compared to saline, FIG. 4
Procedure: FIG. 4 is a graph showing the time spent on the open arm by mice treated with 2C-B for increasing amounts of time.
as §1

[3] = taken recreationally; cited from earlier work
[4] = system: mice injected with a toxic level of LPS; experiment: Lethal septic event after a toxic level of LPS in mice; format: in vivo; settings: FIG. 2
Procedure: FIG. 2 is a plot showing % mice that died after injection of a toxic level of LPS when administered 2C-H or vehicle control.
(§2) In another experiment, mice were also injected with a toxic level of LPS to initiate a lethal septic event, which was attenuated by administration of 2C-H (FIG. 2).

TNFa in circulation = experiment: LPS-induced inflammatory response in mice, TNFa in circulation; format: in vivo; settings: mice injected with LPS; subcutaneous administration; FIG. 1
Procedure: FIG. 1 is a graph showing the level of TNF-α in serum of mice injected with LPS to induce inflammation and administered 2C-H or control vehicle.
as §2

## COc1cc(CCN)c(OC)cc1Br [2C-B, 4-Bromo-2,5-dimethoxyphenethylamine]
Mice [1]
  dose that can be orally administered without showing any signs of hallucination: 0.025 mg/kg
Mice [2]
  time spent on the open arm: increased time spent on the open arm compared to saline
[3]
  threshold unit dose that can cause psychedelic activity: about 5 mg

## CCc1cc(OC)c(CCN)cc1OC [2C-E, 4-Ethyl-2,5-dimethoxyphenethylamine]
[3]
  threshold unit dose that can cause psychedelic activity: about 2 mg

## COc1ccc(OC)c(CCN)c1 [2C-H]
[4]
  lethal septic event (% mice that died): attenuated
TNFa in circulation
  inflammatory response (measured by TNFa in circulation): quickly quelled

## COc1cc(CCN)c(OC)cc1I [2C-I, 2-(4-lodo-2,5-dimethoxyphenyl)ethan-1-amine]
[3]
  threshold unit dose that can cause psychedelic activity: about 2 mg
